The record followed here is PubChem BioAssay AID248 (DTP/NCI, 2004).

The subject of the assay is L1210 leukemia ip in BDF1 mice, survival T/C. The assay can be described thus: NCI In Vivo Anticancer Drug Screen. Data for tumor model L1210 Leukemia (intraperitoneal) in B6D2F1 (BDF1) mice. Particulars: endpoint: mean survival time, higher = longer survival. The method, boiled down: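 Ratio derived from survival: compound-dosed mice over vehicle-dosed mice, all bearing a transplantable tumor.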

The mark [1] stands for this setting: dose: 50.0 mg/kg/injection, schedule: Q01DX001 (ip), vehicle: saline.
Where [2] appears, read: dose: 100.0 mg/kg/injection, schedule: Q01DX001 (ip), vehicle: saline.
The mark [3] stands for this setting: dose: 200.0 mg/kg/injection, schedule: Q01DX001 (ip), vehicle: saline.
Where [4] appears, read: dose: 400.0 mg/kg/injection, schedule: Q01DX001 (ip), vehicle: saline.
Setting [5] is: dose: 100.0 mg/kg/injection, schedule: Q01DX001 (ip), vehicle: Klucel (hydroxypropylcellulose) (HPC).
[6] abbreviates: dose: 100.0 mg/kg/injection, schedule: Q01DX009 (ip), vehicle: Klucel (hydroxypropylcellulose) (HPC).
The mark [7] stands for this setting: dose: 200.0 mg/kg/injection, schedule: Q01DX001 (ip), vehicle: Klucel (hydroxypropylcellulose) (HPC).
[8] abbreviates: dose: 200.0 mg/kg/injection, schedule: Q01DX009 (ip), vehicle: Klucel (hydroxypropylcellulose) (HPC).
Where [9] appears, read: dose: 400.0 mg/kg/injection, schedule: Q01DX001 (ip), vehicle: Klucel (hydroxypropylcellulose) (HPC).
The mark [10] stands for this setting: dose: 50.0 mg/kg/injection, schedule: Q01DX009 (ip), vehicle: Klucel (hydroxypropylcellulose) (HPC).
Where [11] appears, read: dose: 100.0 mg/kg/injection, schedule: Q04DX003 (ip), vehicle: saline.

Values joined by “and” are separate entries in the source; they are usually repeats but may differ in a detail not shown here. Equal entries are not always repeated. Toxic doses and inconclusive results are not listed.

Turning to `CCCCC/C(=N\OC(=O)NC)C(F)(F)F`, the T/C runs as follows: (dose: 5.0 mg/kg/injection, schedule: Q01DX001 (ip), vehicle: saline) 96 % of control; (dose: 10.0 mg/kg/injection, schedule: Q01DX001 (ip), vehicle: saline) 104 % of control; (dose: 20.0 mg/kg/injection, schedule: Q01DX001 (ip), vehicle: saline) 100 % of control; (dose: 40.0 mg/kg/injection, schedule: Q01DX001 (ip), vehicle: saline) 98 % of control; (dose: 80.0 mg/kg/injection, schedule: Q01DX001 (ip), vehicle: saline) 94 % of control.
`CCC(CC)(c1ccccc1)C(O)c1ccccc1` (stereo unspecified): the T/C by setting is: under setting [1], 97 % of control; under setting [2], 97 % of control; under setting [3], 103 % of control; under setting [4], 101 % of control.
Regarding `N#CC1CC2c3ccccc3C1([N+](=O)[O-])c1ccccc12` (stereo unspecified), the T/C by setting is: under setting [5], 90 % of control; under setting [6], 98 % of control; under setting [7], 104 % of control; under setting [8], 98 % of control; under setting [9], 96 % of control; (dose: 400.0 mg/kg/injection, schedule: Q01DX009 (ip), vehicle: Klucel (hydroxypropylcellulose) (HPC)) 103 % of control.
For the compound `O=C1[O][Hg][c]2cccc3cccc1c23`, the T/C is, setting by setting: (dose: 5.0 mg/kg/injection, schedule: Q04DX003 (ip), vehicle: saline with Tween-80) 101 % of control; (dose: 10.0 mg/kg/injection, schedule: Q04DX003 (ip), vehicle: saline with Tween-80) 95 % of control.
In the case of `CCNc1nc2c(=O)[nH]c(N)nc2n1C1OC(CO)C(O)C1O` (stereo unspecified), the T/C by setting is: (dose: 100.0 mg/kg/injection, schedule: Q01DX001 (ip), vehicle: carboxymethylcellulose (CMC)) 107 % of control; (dose: 200.0 mg/kg/injection, schedule: Q01DX001 (ip), vehicle: carboxymethylcellulose (CMC)) 96 % of control; (dose: 400.0 mg/kg/injection, schedule: Q01DX001 (ip), vehicle: carboxymethylcellulose (CMC)) 107 % of control.
Regarding `CCOC(=O)CCCC(=O)N(CC(=O)OCC)Cc1ccccc1`, the T/C was 102 % of control (dose: 100.0 mg/kg/injection, schedule: Q04DX003 (ip), vehicle: saline with Tween-80); 93 % of control (dose: 200.0 mg/kg/injection, schedule: Q04DX003 (ip), vehicle: saline with Tween-80); 90 % of control (dose: 400.0 mg/kg/injection, schedule: Q04DX003 (ip), vehicle: saline with Tween-80).
Turning to `COc1ccc(C(=S)N2CCN(c3cccc(Cl)c3)CC2)cc1`, the T/C is 96 % of control under setting [2], 91 % of control under setting [3] and 91 % of control under setting [4].
Take `COc1ccc([N+](=O)[O-])cc1NC(=O)Nc1cccc(C(=O)O)c1`: the T/C runs as follows: under setting [10], 101 % of control; under setting [6], 96 % of control; under setting [8], 86 % of control.
For `c1ccc(Nc2nc(Nc3ccccc3)nc(Nc3ccccc3)n2)cc1`, the T/C is, setting by setting: (dose: 25.0 mg/kg/injection, schedule: Q04DX002 (ip), vehicle: Klucel (hydroxypropylcellulose) (HPC)) 92 % of control; (dose: 50.0 mg/kg/injection, schedule: Q04DX002 (ip), vehicle: Klucel (hydroxypropylcellulose) (HPC)) 92 % of control; (dose: 100.0 mg/kg/injection, schedule: Q04DX002 (ip), vehicle: Klucel (hydroxypropylcellulose) (HPC)) 88 % of control.
For the compound `CCN(CC)CCCC(C)Nc1cc(OC)cc2cccnc12` (stereo unspecified), the T/C (dose: 10.0 mg/kg/injection, schedule: Q01DX009 (ip), vehicle: Klucel (hydroxypropylcellulose) (HPC)) was 93 % of control; the T/C (dose: 20.0 mg/kg/injection, schedule: Q01DX001 (ip), vehicle: Klucel (hydroxypropylcellulose) (HPC)) was 100 % of control; the T/C (dose: 20.0 mg/kg/injection, schedule: Q01DX009 (ip), vehicle: Klucel (hydroxypropylcellulose) (HPC)) was 96 % of control; the T/C (dose: 40.0 mg/kg/injection, schedule: Q01DX001 (ip), vehicle: Klucel (hydroxypropylcellulose) (HPC)) was 100 % of control; the T/C (dose: 40.0 mg/kg/injection, schedule: Q01DX009 (ip), vehicle: Klucel (hydroxypropylcellulose) (HPC)) was 96 % of control.
For `CN(C)C(N)=Nc1ccc(Cl)cc1`, the T/C (dose: 12.5 mg/kg/injection, schedule: Q01DX009 (ip), vehicle: Klucel (hydroxypropylcellulose) (HPC)) is 97 % of control; the T/C (dose: 25.0 mg/kg/injection, schedule: Q01DX009 (ip), vehicle: Klucel (hydroxypropylcellulose) (HPC)) is 98 % of control; the T/C under setting [10] is 89 % of control.
As for `COC(=O)C(=O)c1ccccc1`, the T/C runs as follows: (dose: 100.0 mg/kg/injection, schedule: Q01DX009 (ip), vehicle: saline with Tween-80) 101 % of control; (dose: 200.0 mg/kg/injection, schedule: Q01DX009 (ip), vehicle: saline with Tween-80) 100 % of control; (dose: 400.0 mg/kg/injection, schedule: Q01DX009 (ip), vehicle: saline with Tween-80) 89 % of control.
`CS(=O)(=O)OCCNC[C@@H](O)[C@@H](O)CNCCOS(C)(=O)=O`: the T/C runs as follows: (dose: 0.8 mg/kg/injection, schedule: Q01DX001 (ip), vehicle: saline) 101 % of control; (dose: 1.4 mg/kg/injection, schedule: Q01DX001 (ip), vehicle: saline) 112 % of control and 121 % of control; (dose: 2.3 mg/kg/injection, schedule: Q01DX001 (ip), vehicle: saline) 112 % of control and 123 % of control; (dose: 6.5 mg/kg/injection, schedule: Q01DX001 (ip), vehicle: saline) 122 % of control; (dose: 18.0 mg/kg/injection, schedule: Q01DX001 (ip), vehicle: saline) 161 % of control; (dose: 30.0 mg/kg/injection, schedule: Q01DX001 (ip), vehicle: saline) 151 % of control and 186 % of control. Besides, the T/C runs as follows: under setting [1], 207 % of control; under setting [2], 108 % of control.
With `CCOC(=O)/C=C/C(=O)O.[Co]`, the T/C runs as follows: (dose: 12.5 mg/kg/injection, schedule: Q04DX003 (ip), vehicle: saline) 114 % of control; (dose: 25.0 mg/kg/injection, schedule: Q04DX003 (ip), vehicle: saline) 118 % of control; (dose: 50.0 mg/kg/injection, schedule: Q04DX003 (ip), vehicle: saline) 116 % of control; under setting [11], 118 % of control and 121 % of control.
For the compound `C#CCOCC(O)C[As](=O)(O)c1cccc(Cl)c1` (stereo unspecified), the T/C was 92 % of control (dose: 1.56 mg/kg/injection, schedule: Q04DX003 (ip), vehicle: saline with Tween-80); 104 % of control (dose: 3.13 mg/kg/injection, schedule: Q04DX003 (ip), vehicle: saline with Tween-80); 104 % of control (dose: 6.25 mg/kg/injection, schedule: Q04DX003 (ip), vehicle: saline with Tween-80).
`C=CCNC(=O)N(CC)C(=NCC)c1ccc(NC(=O)c2ccc(C(=O)Nc3ccc(C(=NCC)N(CC)C(=O)NCC=C)cc3)cc2)cc1`: for the setting “dose: 3.87 mg/kg/injection, schedule: Q01DX015 (ip), vehicle: methylcellulose (MC)”, the T/C is 104 % of control.
`COc1ccccc1N=C(C)CC(C)=O`: the T/C is, setting by setting: under setting [5], 100 % of control; under setting [7], 91 % of control; under setting [9], 99 % of control.
In the case of `CNCCOC`, the T/C (dose: 100.0 mg/kg/injection, schedule: Q04DX002 (ip), vehicle: saline) is 98 % of control.
As for `CNC(=O)NC(=O)C(C)(C)Oc1ccc(Cl)cc1`, the T/C by setting is: under setting [11], 97 % of control; (dose: 200.0 mg/kg/injection, schedule: Q04DX003 (ip), vehicle: saline) 94 % of control.
For `CC1(C)CCC(C)(C)C2CC3CC4C(CC3CC21)C(C)(C)CCC4(C)C` (stereo unspecified), the T/C reads like this: under setting [2], 89 % of control; under setting [3], 104 % of control; under setting [4], 97 % of control.
Regarding `Cc1c(N=Nc2ccccc2)c(=O)[nH]n1-c1ccccc1`, the T/C is 105 % of control under setting [5]; 111 % of control (dose: 100.0 mg/kg/injection, schedule: Q04DX003 (ip), vehicle: Klucel (hydroxypropylcellulose) (HPC)); 107 % of control under setting [7]; 106 % of control (dose: 200.0 mg/kg/injection, schedule: Q04DX003 (ip), vehicle: Klucel (hydroxypropylcellulose) (HPC)); 103 % of control under setting [9]; 96 % of control (dose: 400.0 mg/kg/injection, schedule: Q04DX003 (ip), vehicle: Klucel (hydroxypropylcellulose) (HPC)).
Turning to `CN(CCC#N)C1=CCCCCC1`, the T/C under setting [2] is 101 % of control and the T/C under setting [3] is 97 % of control.
